{"source": "patent US20160303069A1", "about": "“MEDICAL USE OF COMPOUND FROM GARCINIA ESCULENTA” (Hong Kong Baptist University, priority 2015, published 2016)", "key": {"KYSE150 cells [1]": {"tested_on": "KYSE150 cells", "assay": "cell cycle analysis by PI flow cytometry", "assay_type": "cell-based, human", "conditions": "48 hours", "description": "(§1) Eca109 and KYSE150 are cultured in RPMI1640 medium supplemented with 10% fetal calf serum, 100 U/ml penicillin and 100 μg/ml streptomycin in a humidified atmosphere containing 5% CO2 at 37° C. 0.25% trypsin is used for digestion and passage, cells under logarithmic growth phase are used in the experiment.\n[…] Cells are then harvested and fixed in 70% cold ethanol and stored 4° C. overnight. The cells are incubated with PI containing RNase A for 30 mins at 37° C., and are analyzed by flow cytometry (BD Biosciences Inc., Franklin Lakes, N.J., USA)."}, "Eca109 cells [2]": {"tested_on": "Eca109 cells", "assay": "cell cycle analysis by PI flow cytometry", "assay_type": "cell-based, human", "conditions": "48 hours", "description": "as §1\nEca109 and KYSE150 (2×10^5 cells/well) are seeded to a 6-well place and treated with GPX or SFB (20 μM/well) for 48 hours. Cells are then harvested and fixed in 70% cold ethanol and stored 4° C. overnight. The cells are incubated with PI containing RNase A for 30 mins at 37° C., and are analyzed by flow cytometry (BD Biosciences Inc., Franklin Lakes, N.J., USA)."}, "KYSE150 cells [3]": {"tested_on": "KYSE150 cells", "assay": "scratch (wound healing) migration assay", "assay_type": "cell-based, human", "description": "(§2) Eca109 and KYSE150 are cultured in RPMI1640 medium supplemented with 10% fetal calf serum, 100 U/ml penicillin and 100 μg/ml streptomycin in a humidified atmosphere containing 5% CO2 at 37° C. 0.25% trypsin is used for digestion and passage; cells under logarithmic growth phase are used in the experiment.\n(§3) Eca109 and KYSE150 under logarithmic growth phase are seeded into 24-well plate (1×10^5 cells/well). When monolayer of cell is formed, use a sterile 100 μl pipette tip to create a scratch on the monolayer, and fresh medium containing different concentration of Griffipavixanthone (GPX) or Sorafenib (SFB) (20 μM/well) are added. Cells are observed at 12 hours and 36 hours after scratch and imaged under IX83 microscope (Olympus, Tokyo, Japan)."}, "Eca109 cells [4]": {"tested_on": "Eca109 cells", "assay": "scratch (wound healing) migration assay", "assay_type": "cell-based, human", "description": "as §2, §3"}, "KYSE150 cells [5]": {"tested_on": "KYSE150 cells", "assay": "transwell cell migration assay", "assay_type": "cell-based, human", "conditions": "5, 10, 15, 20 μM, 24 hours", "description": "as §2\n(§4) Eca109 and KYSE150 (5×10^4 cells/well) are seeded to the upper chamber (8 μm pore size) of the transwell chambers. The upper chamber contains serum-free; the lower chamber contains 10% FBS. Cells are treated with GPX for 24 hours, medium is then removed, non-migrated cells found on the upper chamber are removed using a cotton swab. Migrated cells found on the bottom chamber are fixed with 4% paraformaldehyde, stained with 0.1% crystal violet and scored under a light microscope in five random fields as shown in FIG. 3. Experimental data are expressed as mean±standard deviation, using SPSS18.0 statistical software for analysis, One-Way ANOVA for variance, comparison using Student t test, **P<0.01, ***P<0.001 is considered as statistically significant difference."}, "Eca109 cells [6]": {"tested_on": "Eca109 cells", "assay": "transwell cell migration assay", "assay_type": "cell-based, human", "conditions": "5, 10, 15, 20 μM, 24 hours", "description": "as §2, §4"}, "KYSE150 lung metastasis": {"tested_on": "KYSE150 lung metastasis", "assay": "lung metastasis animal model (KYSE150 cells injected intravenously)", "assay_type": "in vivo", "conditions": "nude mice, 20 mg/kg every another day for 35 days; for number of lung tumor nodules / size / area of lung nodules (metastatic foci): HE staining, 20 mg/kg", "description": "Eca109 and KYSE150 are cultured in RPMI1640 medium supplemented with 10% fetal calf serum, 100 U/ml penicillin and 100 μg/ml streptomycin in a humidified incubator containing 5% CO2 at 37° C. 0.25% trypsin is used for digestion and passage; cells under logarithmic growth phase are used in the experiment.\nKYSE150 cells (1×10^6 cells/mouse) are intravenously injected into 6-week old male nude mice (Experimental Animal Center of the Chinese Academy of Science, Shanghai, China). The 6-week old male nude mice weight 20 g each. After injection of the cancer cells, the mice are divided into 3 groups randomly (n=8 in each group). DMSO, GPX (20 mg/kg) or 5-FU (20 mg/kg) are administered to the mice intraperitoneally every another day for 35 days. Body weight is measured every 2 days. 35 days later, lungs are removed and weighted. Using Bouin's solution, lungs are fixed, sliced and stained with HE to count number of lung nodules."}, "KYSE150 cells [7]": {"tested_on": "KYSE150 cells", "assay": "colony formation / cell proliferation assay", "assay_type": "cell-based, human", "conditions": "5, 10, 15, 20 μM, 48 hours treatment, 7 days incubation", "description": "as §2\n(§5) Eca109 (500 cells/well) and KYSE150 (250 cells/well) are seeded in a 6-well plate. […] On the 7th day, cells are fixed with 4% paraformaldehyde, stained with 0.1% crystal violet and imaged under a light microscope."}, "Eca109 cells [8]": {"tested_on": "Eca109 cells", "assay": "colony formation / cell proliferation assay", "assay_type": "cell-based, human", "conditions": "5, 10, 15, 20 μM, 48 hours treatment, 7 days incubation", "description": "as §2, §5"}, "esophageal cancer": {"tested_on": "esophageal cancer", "assay": "apoptosis in vitro", "assay_type": "cell-based"}, "Eca109 cells [9]": {"tested_on": "Eca109 cells", "assay": "matrigel transwell cell invasion assay", "assay_type": "cell-based, human", "conditions": "5, 10, 15, 20 μM, 24 hours", "description": "as §2\nTranswell chambers (8 μm pore size) used in cell migration assay are pre-incubated with matrigel for 2 hours, Eca109 (1×10^5 cells/well) are seeded onto serum-free upper chambers, lower chamber contains 10% FBS medium. Cells are treatment with GPX for 24 hours, thereafter, medium is discarded, cotton swab is used to gently remove the non invaded cells in the upper chamber. Invaded cells in the lower chamber are fixed with 4% paraformaldehyde, stained with 0.1% crystal violet and scored under a light microscope. Experimental data are expressed as mean±standard deviation, using SPSS18.0 statistical software for analysis, One-Way ANOVA for variance, comparison using Student t test, *P<0.05, **P<0.01, ***P<0.001 is considered as statistically significant difference."}, "KYSE150 cells [10]": {"tested_on": "KYSE150 cells", "assay": "matrigel transwell cell invasion assay", "assay_type": "cell-based, human", "conditions": "5, 10, 15, 20 μM, 24 hours"}, "[11]": {"conditions": "SFB 20 μM/well, positive control"}, "[12]": {"conditions": "different concentrations of GPX, observed 12 h and 36 h after scratch"}}, "data": [{"smiles": "CNC(=O)c1cc(Oc2ccc(NC(=O)Nc3ccc(Cl)c(C(F)(F)F)c3)cc2)ccn1", "note": "[SFB, Sorafenib, reference compound]", "values": [{"measurement": "G2/M cell cycle arrest", "setting": "KYSE150 cells [1]; [11]", "result": "the results are in line with SFB"}, {"measurement": "G2/M cell cycle arrest", "setting": "Eca109 cells [2]; [11]", "result": "the results are in line with SFB"}, {"measurement": "inhibition of cell scratch migration in wound healing", "setting": "KYSE150 cells [3]; [11]", "result": "significantly inhibit cell scratch migration"}, {"measurement": "inhibition of cell scratch migration in wound healing", "setting": "Eca109 cells [4]; [11]", "result": "significantly inhibit cell scratch migration"}]}, {"smiles": "CC1=C[C@H]2c3c(c(O)c(O)c4oc5cc(O)cc(O)c5c(=O)c34)[C@H](c3cc(O)c(O)c4oc5cc(O)cc(O)c5c(=O)c34)[C@H]2C(C)(C)C1", "note": "[GPX, Griffipavixanthone]", "values": [{"measurement": "inhibition of cell migration (transwell)", "setting": "KYSE150 cells [5]", "result": "inhibits cell migration of Eca109 and KYSE150 at 5, 10, 15, 20 μM in a dose dependent manner"}, {"measurement": "inhibition of cell migration (transwell)", "setting": "Eca109 cells [6]", "result": "inhibits cell migration of Eca109 and KYSE150 at 5, 10, 15, 20 μM in a dose dependent manner"}, {"measurement": "inhibition of lung metastasis of KYSE150", "setting": "KYSE150 lung metastasis", "result": "significantly inhibits lung metastasis of KYSE150"}, {"measurement": "lung weight", "setting": "KYSE150 lung metastasis", "result": "reduced lung weight"}, {"measurement": "number of lung tumor nodules", "setting": "KYSE150 lung metastasis", "result": "reduced number of lung tumor nodules"}, {"measurement": "size / area of lung nodules (metastatic foci)", "setting": "KYSE150 lung metastasis", "result": "metastatic foci are sparse and smaller"}, {"measurement": "number of lung tumor nodules", "setting": "KYSE150 lung metastasis; listed as Griffipavixanthone", "result": "reduces lung nodules"}, {"measurement": "size / area of lung nodules (metastatic foci)", "setting": "KYSE150 lung metastasis; listed as Griffipavixanthone", "result": "reduces lung nodules and area of pulmonary nodules in lung tissues"}, {"measurement": "G2/M cell cycle arrest", "setting": "KYSE150 cells [1]; 5, 10, 15, 20 μM", "result": "induces G2/M cell cycle arrest in Eca109 and KYSE150 at 5, 10, 15, 20 μM in a dose dependent manner"}, {"measurement": "inhibition of cell proliferation (colony formation)", "setting": "KYSE150 cells [7]", "result": "inhibits cell proliferation of Eca109 and KYSE150 at 5, 10, 15, 20 μM in a dose dependent manner"}, {"measurement": "inhibition of cell proliferation (colony formation)", "setting": "Eca109 cells [8]", "result": "inhibits cell proliferation of Eca109 and KYSE150 at 5, 10, 15, 20 μM in a dose dependent manner"}, {"measurement": "G2/M cell cycle arrest", "setting": "Eca109 cells [2]; 5, 10, 15, 20 μM", "result": "induces G2/M cell cycle arrest in Eca109 and KYSE150 at 5, 10, 15, 20 μM in a dose dependent manner"}, {"measurement": "promotion of apoptosis", "setting": "esophageal cancer", "result": "without promoting apoptosis in vitro"}, {"measurement": "inhibition of cell scratch migration in wound healing", "setting": "KYSE150 cells [3]; [12]", "result": "inhibits cell migration of Eca109 and KYSE150 in wound healing in a dose dependent manner"}, {"measurement": "inhibition of cell scratch migration in wound healing", "setting": "Eca109 cells [4]; [12]", "result": "inhibits cell migration of Eca109 and KYSE150 in wound healing in a dose dependent manner"}, {"measurement": "inhibition of cell invasion", "setting": "Eca109 cells [9]", "result": "inhibits cell invasion of Eca109 and KYSE150 at 5, 10, 15, 20 μM in a dose dependent manner"}, {"measurement": "inhibition of cell invasion", "setting": "KYSE150 cells [10]", "result": "inhibits cell invasion of Eca109 and KYSE150 at 5, 10, 15, 20 μM in a dose dependent manner"}]}]}
